Measurements: US10765114B2, “4-amino-6-(pyridyl and 2-substitutedphenyl)-picolinates and 6-amino-2-(pyridyl and 2-substitutedphenyl)-pyrimidine-4-carboxylates and their use as herbicides” (Dow AgroSciences LLC, priority 2013, dated 2020)
Where two headings read alike, the source gives them in different places.

Columns and labels:
[1] = system: Key Broadleaf Weed and Crop Species; assay: Post-Emergent Test II (Table 5); assay type: in vivo; conditions: post-emergence, 336 h; for pest or weed control at 70 g/ha: application rate 70 (kg ai/ha; footnote: g ai/ha); for pest or weed control at 140 g/ha: application rate 140 (kg ai/ha; footnote: g ai/ha)
How it was run: (§1)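 Visual injury ratings (0 = no injury, 100 = complete kill) taken 14 days after treatment, relative to untreated controls. Compounds, in an acetone/DMSO aqueous carrier with crop oil and surfactant, were applied by track sprayer at 187 L/ha, in a twofold dilution series from the top rate, to plants at the first to second true-leaf stage.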

[2] = system: Key Grass and Sedge Weeds as well as Grass Crops; assay: Post-Emergent Test II (Table 6); assay type: in vivo; conditions: post-emergence, 336 h, 14 days after application; for pest or weed control at 70 g/ha: 70 g ai/ha; for pest or weed control at 140 g/ha: 140 g ai/ha
How it was run: as §1

[3] = Abutilon theophrasti, ABUTH: velvetleaf (Abutilon theophrasti), read-out: Visual Growth Reduction (%) 14 Days After Application ABUTH
[4] = Amaranthus retroflexus, AMARE: redroot pigweed (Amaranthus retroflexus), read-out: Visual Growth Reduction (%) 14 Days After Application AMARE
[5] = Brassica napus, BRSSS: oilseed rape, canola (Brassica napus), read-out: Visual Growth Reduction (%) 14 Days After Application BRSSS
[6] = Chenopodium album, CHEAL: lambsquarters (Chenopodium album), read-out: Visual Growth Reduction (%) 14 Days After Application CHEAL
[7] = Euphorbia heterophylla, EPHHL: wild poinsettia (Euphorbia heterophylla), read-out: Visual Growth Reduction (%) 14 Days After Application EPHHL
[8] = Helianthus annuus, HELAN: sunflower (Helianthus annuus), read-out: Visual Growth Reduction (%) 14 Days After Application HELAN
[9] = Viola tricolor, VIOTR: wild pansy (Viola tricolor), read-out: Visual Growth Reduction (%) 14 Days After Application VIOTR
[10] = CYPSS, read-out: Visual Growth Reduction (%) 14 Days After Application CYPSS
[11] = DIGSA: crabgrass (Digitaria sanguinalis), read-out: Visual Growth Reduction (%) 14 Days After Application DIGSA
[12] = ECHSS, read-out: Visual Growth Reduction (%) 14 Days After Application ECHSS
[13] = ORYSS (crop), read-out: Visual Growth Reduction (%) 14 Days After Application ORYSS
[14] = SETFA: giant foxtail (Setaria faberi), read-out: Visual Growth Reduction (%) 14 Days After Application SETFA
[15] = SORVU: grain sorghum (Sorghum vulgare), read-out: Visual Growth Reduction (%) 14 Days After Application SORVU
[16] = TRZSS (crop), read-out: Visual Growth Reduction (%) 14 Days After Application TRZSS
[17] = ZEAMX: maize, corn (Zea mays), read-out: Visual Growth Reduction (%) 14 Days After Application ZEAMX

| melting point [°C] | Structure (SMILES) | pest or weed control at 70 g/ha [1, 3] [%] | pest or weed control at 140 g/ha [1, 3] [%] | pest or weed control at 70 g/ha [1, 4] [%] | pest or weed control at 140 g/ha [1, 4] [%] | pest or weed control at 70 g/ha [1, 5] [%] | pest or weed control at 140 g/ha [1, 5] [%] | pest or weed control at 70 g/ha [1, 6] [%] | pest or weed control at 140 g/ha [1, 6] [%] | pest or weed control at 70 g/ha [1, 7] [%] | pest or weed control at 140 g/ha [1, 7] [%] | pest or weed control at 70 g/ha [1, 8] [%] | pest or weed control at 140 g/ha [1, 8] [%] | pest or weed control at 70 g/ha [1, 9] [%] | pest or weed control at 140 g/ha [1, 9] [%] | pest or weed control at 70 g/ha [2, 10] [%] | pest or weed control at 140 g/ha [2, 10] [%] | pest or weed control at 70 g/ha [2, 11] [%] | pest or weed control at 140 g/ha [2, 11] [%] | pest or weed control at 70 g/ha [2, 12] [%] | further results |
| --- | --- | --- | --- | --- | --- | --- | --- | --- | --- | --- | --- | --- | --- | --- | --- | --- | --- | --- | --- | --- | --- |
| 188 | COc1c(N)nc(-c2ccc(C(F)(F)F)nc2)nc1C(=O)O [Compound 5, 6-amino-5-methoxy-2-(6-(trifluoromethyl)pyridin-3-yl)pyrimidine-4-carboxylic acid] | 0 to 29 | 0 to 29 | 75 to 84 | 85 to 94 | 85 to 94 | 85 to 94 | 0 to 29 | 45 to 59 | 85 to 94 | 95 to 100 | 60 to 74 | 75 to 84 | 0 to 29 | 30 to 44 | 0 to 29 | 0 to 29 | 60 to 74 | 75 to 84 | 85 to 94 | pest or weed control at 140 g/ha [2, 12]: 85 to 94%; pest or weed control at 70 g/ha [2, 13]: 0 to 29%; pest or weed control at 140 g/ha [2, 13]: 0 to 29%; pest or weed control at 70 g/ha [2, 14]: 0 to 29%; pest or weed control at 140 g/ha [2, 14]: 30 to 44%; pest or weed control at 70 g/ha [2, 15]: 0 to 29%; pest or weed control at 140 g/ha [2, 15]: 0 to 29%; pest or weed control at 70 g/ha [2, 16]: 0 to 29%; pest or weed control at 140 g/ha [2, 16]: 30 to 44%; pest or weed control at 70 g/ha [2, 17]: 0 to 29%; pest or weed control at 140 g/ha [2, 17]: 0 to 29% |
| 195 to 196 | COC(=O)c1nc(-c2ccc(Cl)c(Cl)c2Cl)c(F)c(N)c1Cl [Compound 12] | 85 to 94 | 85 to 94 | 95 to 100 | 95 to 100 | 75 to 84 | 75 to 84 | 85 to 94 | 85 to 94 | 75 to 84 | 75 to 84 | 85 to 94 | 85 to 94 | 0 to 29 | 0 to 29 | 0 to 29 | 45 to 59 | 30 to 44 | 45 to 59 | 0 to 29 | pest or weed control at 140 g/ha [2, 12]: 0 to 29%; pest or weed control at 70 g/ha [2, 13]: 0 to 29%; pest or weed control at 140 g/ha [2, 13]: 0 to 29%; pest or weed control at 70 g/ha [2, 14]: 45 to 59%; pest or weed control at 140 g/ha [2, 14]: 45 to 59%; pest or weed control at 70 g/ha [2, 15]: 0 to 29%; pest or weed control at 140 g/ha [2, 15]: 30 to 44%; pest or weed control at 70 g/ha [2, 16]: 0 to 29%; pest or weed control at 140 g/ha [2, 16]: 0 to 29%; pest or weed control at 70 g/ha [2, 17]: 75 to 84% |
| 231 | COC(=O)c1nc(-c2ccc(Cl)nc2Cl)cc(N)c1Cl [Compound 15, methyl 4-amino-2′,5,6′-trichloro-[2,3′-bipyridine]-6-carboxylate] | 75 to 84 | 85 to 94 | 95 to 100 | 95 to 100 | 60 to 74 | 75 to 84 | 85 to 94 | 85 to 94 | 0 to 29 | 0 to 29 | 85 to 94 | 95 to 100 | 30 to 44 | 30 to 44 | 0 to 29 | 0 to 29 | 0 to 29 | 0 to 29 | 0 to 29 | pest or weed control at 140 g/ha [2, 12]: 0 to 29%; pest or weed control at 70 g/ha [2, 13]: 0 to 29%; pest or weed control at 140 g/ha [2, 13]: 0 to 29%; pest or weed control at 70 g/ha [2, 14]: 0 to 29%; pest or weed control at 140 g/ha [2, 14]: 0 to 29%; pest or weed control at 70 g/ha [2, 15]: 0 to 29%; pest or weed control at 140 g/ha [2, 15]: 0 to 29%; pest or weed control at 70 g/ha [2, 16]: 0 to 29%; pest or weed control at 140 g/ha [2, 16]: 0 to 29%; pest or weed control at 70 g/ha [2, 17]: 0 to 29%; pest or weed control at 140 g/ha [2, 17]: 0 to 29% |
| 167 to 168 | COC(=O)c1nc(-c2ccc(F)nc2)c(F)c(N)c1Cl [Compound 23] | 75 to 84 | 85 to 94 | 95 to 100 | 95 to 100 | 45 to 59 | 75 to 84 | 95 to 100 | 95 to 100 | 75 to 84 | 85 to 94 | 85 to 94 | 85 to 94 | 30 to 44 | 45 to 59 | 0 to 29 | 0 to 29 | 30 to 44 | 45 to 59 | 60 to 74 | pest or weed control at 140 g/ha [2, 12]: 75 to 84%; pest or weed control at 70 g/ha [2, 13]: 0 to 29%; pest or weed control at 140 g/ha [2, 13]: 0 to 29%; pest or weed control at 70 g/ha [2, 15]: 0 to 29%; pest or weed control at 140 g/ha [2, 15]: 0 to 29%; pest or weed control at 70 g/ha [2, 16]: 0 to 29%; pest or weed control at 140 g/ha [2, 16]: 0 to 29%; pest or weed control at 70 g/ha [2, 17]: 0 to 29%; pest or weed control at 140 g/ha [2, 17]: 45 to 59% |
